Blank lines part the entries; values can stand above or below the compound they belong to.
Legend:
IMR-32 cells = assay: Tumor growth inhibition in IMR-32 mouse xenograft model; type: in vivo; conditions: AE at 75% of the MTD, multiple dose regimen
Method: (§1) FIGS. 3A-3B are line graphs depicting tumor growth inhibition in an IMR-32 mouse xenograft model following administration of AE (◯), 1×CP1-FKMMAE (□), or 3×CP1-FKMMAE (⋄). The control sample depicts uninhibited tumor growth (X). Arrows indicate the times of administration, as described in Example 5.
(§2) The tumoricidal effects of CP1-FKMMAE were evaluated in a mouse xenograft model. Tumors were established in nude mice by subcutaneous injection of IMR-32 cells. A multiple dose regimen was evaluated based on prior studies using AE, which determined a MTD following four administrations of 0.4 mg/kg. Due to limited availability, AE was used at 75% of the MTD. CP1-FKMMAE was administered at 1× and 3× molar equivalents of AE according to the same dosing schedule. Tumor volume, animal weight, and serum growth hormone levels were assessed for each treatment group.

growth hormone = assay: Serum growth hormone levels (ELISA) in IMR-32 mouse xenograft model; type: in vivo; conditions: AE at 75% of the MTD, potential toxicity to the pituitary gland
Method: FIG. 4 is a line graph depicting growth hormone levels in an IMR-32 mouse xenograft model following administration of AE (◯), 1×CP1-FKMMAE (□), or 3×CP1-FKMMAE (⋄). The control sample depicts growth hormone levels in the absence of treatment (X). Arrows indicate the times of administration, as described in Example 5. Serum growth hormone levels were determined by ELISA to assess potential toxicity to the pituitary gland.
as §2

[1] = following four administrations; prior studies; cited from earlier work
[2] = Animal weight in IMR-32 mouse xenograft model; type: in vivo; conditions: AE at 75% of the MTD
Method: as §1, §2

[3] = biological target: human somatostatin receptor SSTR2 of IMR-32 human neuroblastoma cells (human) (UniProt P30874); assay: uptake of applied cpm by SSTR+ human cancer cells, 20-24 h at 37 C, gamma counting
[4] = biological target: human somatostatin receptor SSTR2 of IMR-32 human neuroblastoma cells (human) (UniProt P30874); assay: uptake of applied cpm by SSTR+ human cancer cells; competitor somatostatin at 1000X molar excess
[5] = biological target: human somatostatin receptor SSTR2 of IMR-32 human neuroblastoma cells (human) (UniProt P30874); assay: competition with Indium-111-octreotide on IMR-32 membrane extracts, filter assay, gamma counting

Sequence of UniProt P30874 (P30874 whole entry): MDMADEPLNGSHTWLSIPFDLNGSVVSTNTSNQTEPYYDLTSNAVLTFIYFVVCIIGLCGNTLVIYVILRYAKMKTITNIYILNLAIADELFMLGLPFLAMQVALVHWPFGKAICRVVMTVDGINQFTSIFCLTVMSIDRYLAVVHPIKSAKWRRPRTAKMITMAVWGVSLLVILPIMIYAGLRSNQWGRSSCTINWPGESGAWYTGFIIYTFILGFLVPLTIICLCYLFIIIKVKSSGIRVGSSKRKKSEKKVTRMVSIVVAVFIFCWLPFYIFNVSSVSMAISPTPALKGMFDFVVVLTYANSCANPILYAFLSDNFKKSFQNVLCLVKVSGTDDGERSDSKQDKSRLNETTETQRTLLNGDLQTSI

Compound: CC[C@H](C)[C@@H]([C@@H](CC(=O)N1CCC[C@H]1[C@H](OC)[C@@H](C)C(=O)N[C@H](C)[C@@H](O)c1ccccc1)OC)N(C)C(=O)[C@@H](NC(=O)[C@H](C(C)C)N(C)C)C(C)C [AE, Auristatin E]
- Mean tumor volume (IMR-32 cells): reduction in mean tumor volume
- Serum growth hormone levels (growth hormone): relative stability
- MTD (maximal tolerable dose) [1]: 0.4 mg/kg
- Mean mouse weight [2]: slightly increased

- Percentage (%) Uptake [3]: 4.4%
- Percentage (%) Uptake in the Presence of 1000X SST [4]: 0.1%
Compound: Indium-111-octreotide (peptide)

- IC50 [5]: 3 nM
Compound: octreotide (unlabeled) (peptide)
